These results are taken from patent US20110275679A1, “FLUPIRTINE HYDROCHLORIDE MALEIC ACID COCRYSTAL” (Bionevia Pharmaceuticals, Inc., priority 2008, published 2011).

Data set [1] in a line: Intrinsic dissolution in water at 37° C. (Woods apparatus pellet, UV absorbance at 343 nm). The data set is classed as physicochemical. The method, then: Intrinsic Dissolution: Pellets of approximately 200 mg were pressed at 3000 lbs. for 1 minute in a standard Woods apparatus, with a surface area of 0.5 cm^2. One pellet was tested for each material. The samples were rotated in a VanKel dissolution apparatus, with automated sampling, at 100 RPM in 900 mL of water at 37° C. Aliquots were taken every two minutes and not filtered prior to analysis. […] A wavelength of approximately 343 nm was chosen for the cocrystal to avoid potential interference from maleic acid. To determine the rate of dissolution of each material, a plot was generated of the absorbance over time for each material. From this plot, a linear region was chosen from the initial dissolution period of each material. Concentrations were plotted versus time for the regions. A straight-line was fit to the data for each material. The slope of these lines provides the dissolution rate for each of the materials, expressed as [μg/mL]/min. The rates were not normalized for the surface area of the pellet. Aliquots of the dissolution medium were removed manually at the end of the run and analyzed by UV spectrophotometry, and the remainder of the pellets were recovered for XRPD analysis. FIG. 2-3 depicts the UV absorbance (at 343 nm) vs. time curves for the intrinsic dissolution experiment on flupirtine maleate in water at 37° C. […] Intrinsic dissolution experiments were performed under sink conditions in water at 37° C. […] The intrinsic dissolution rate of the 1:1 flupirtine hydrochloride maleic acid cocrystal was ˜0.21 μg/mL/min. There appeared to be a slow chemical change occurring in the dissolution medium. The solid recovered from the intrinsic dissolution experiment was analyzed by XRPD and determined to correspond to a mixture of the flupirtine hydrochloride maleic acid cocrystal and a small amount of an unidentified material.

The conditions of data set [2]: cited from earlier work.
For data set [3] the following is noted: in man; cited from earlier work.
Where [4] appears, read: water, 37° C., 100 RPM, 900 mL, 0.5 cm^2 pellet, not normalized for surface area.

SMILES strings stand for the structures. Counter-ions that a name gives are not always drawn.

As to `CCOC(=O)Nc1ccc(NCc2ccc(F)cc2)nc1N.Cl.O=C(O)C=CC(=O)O`, the figures for the intrinsic dissolution rate in data set [1] (sink conditions in water at 37° C.) and in data set [1] (setting [4]) were around 0.21 µg/mL/min and 0.21 [μg/mL]/min, respectively.

Consider `CCOC(=O)Nc1ccc(NCc2ccc(F)cc2)nc1N` [flupirtine maleate], for which, in data set [1] (setting [4]), the intrinsic dissolution rate was 0.088 [μg/mL]/min. Besides, the “aqueous solubility as indicated by low absorbance values in the intrinsic dissolution experiment” value in data set [1] (water, 37° C., UV absorbance at 343 nm) was “poor aqueous solubility”. In data set [2], the solubility in water entry is reported as “insoluble in water”.

Turning to `CCOC(=O)Nc1ccc(NCc2ccc(F)cc2)nc1N` [flupirtine, 2-amino-3-carbethoxyamino-6-(p-fluorobenzylamino)pyridine], the “time to maximum plasma concentration (tmax)” value in data set [3] is 2 h.
